According to patent publication US20250122182A1 (Isosterix, Inc., priority 2023, published 2025):

Target: Recombinant KAT6A/MOZ (488-778) protein (Homo sapiens (Human), UniProt Q92794)
Test: KAT6A AlphaLISA Inhibition Screening Assay
Type: biochemical
Settings: for Average Kat6A % inhibition @ 1 μM / inhibition at 1 µM: 1 μM test compound; for Average Kat6A % inhibition @ 10 μM / inhibition at 10 µM: 10 μM test compound; for inhibition at 1 µM: read-out: Average Kat6A % inhibition @ 1 μM; for inhibition at 10 µM: read-out: Average Kat6A % inhibition @ 10 μM
Method in brief: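 25 nM KAT6A (488-778) pre-incubated 60 or 10 min with compound (10-point, 3-fold from 10 μM), then 400 nM acetyl-CoA and 200 nM biotin-H3(1-21) peptide added for 120 min at RT in pH 8.0 Tris buffer with 330 nM TSA. Acetylation read by AlphaLISA (anti-acetyl-lysine acceptor/streptavidin donor beads); % inhibition vs vehicle.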

Recombinant KAT6A/MOZ (488-778) protein, sequence (Q92794 488-778): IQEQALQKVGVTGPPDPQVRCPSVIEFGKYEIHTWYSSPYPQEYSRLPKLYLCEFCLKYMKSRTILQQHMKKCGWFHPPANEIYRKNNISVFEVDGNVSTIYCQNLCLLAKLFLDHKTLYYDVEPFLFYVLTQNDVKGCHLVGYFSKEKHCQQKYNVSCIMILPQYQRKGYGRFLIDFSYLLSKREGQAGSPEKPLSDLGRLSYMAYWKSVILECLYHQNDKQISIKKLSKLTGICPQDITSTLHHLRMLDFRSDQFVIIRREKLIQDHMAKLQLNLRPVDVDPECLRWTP

Structure (SMILES) | Average Kat6A % inhibition @ 1 μM [%] | Average Kat6A % inhibition @ 10 μM [%] | inhibition at 1 µM [%] | inhibition at 10 µM [%]
C=C(F)C(=O)NCc1cnn(Cc2cc(OC)c3c(NS(=O)(=O)c4cc5c(cc4OC)CCC5)noc3c2)c1 [Syn. Ex. 30, 2-fluoro-N-((1-((4-methoxy-3-((6-methoxy-2,3-dihydro-1H-indene)-5-sulfonamido)benzo[d]isoxazol-6-yl)methyl)-1H-pyrazol-4-yl)methyl)acrylamide] | 100 | 100 |  | 
CCc1ccc(OCCO)c(S(=O)(=O)Nc2noc3cc(Cn4cc(CNC(=O)OC)cn4)cc(OC)c23)c1 [Syn. Ex. 64, methyl ((1-((3-((5-ethyl-2-(2-hydroxyethoxy)phenyl)sulfonamido)-4-methoxybenzo[d]isoxazol-6-yl)methyl)-1H-pyrazol-4-yl)methyl)carbamate] |  |  | 94 | 100
CCc1ccc(OCc2ncc[nH]2)c(S(=O)(=O)Nc2noc3cc(Cn4cc(CNC(=O)OC)cn4)cc(OC)c23)c1 [Syn. Ex. 116, methyl ((1-((3-((2-((1H-imidazol-2-yl)methoxy)-5-ethylphenyl)sulfonamido)-4-methoxybenzo[d]isoxazol-6-yl)methyl)-1H-pyrazol-4-yl)methyl)carbamate] |  |  | 100 | 100
COC(=O)NCc1cnn(Cc2cc3c4c(noc4c2)NS(=O)(=O)c2c(OC)cccc2OCCCCCO3)c1 [Syn. Ex. 138, methyl ((1-((14-methoxy-15,15-dioxido-6,7,8,9-tetrahydro-5H,16H-4,10,18-trioxa-15-thia-16,17-diazabenzo[11,12]cyclotetradeca[1,2,3-cd]inden-2-yl)methyl)-1H-pyrazol-4-yl)methyl)carbamate] | 111 | 114 |  | 
C=C(Cl)C(=O)NCc1cnn(Cc2cc(OC)c3c(NS(=O)(=O)c4cc(CC)ccc4OC)noc3c2)c1 [Syn. Ex. 35, 2-chloro-N-((1-((3-((5-ethyl-2-methoxyphenyl)sulfonamido)-4-methoxybenzo[d]isoxazol-6-yl)methyl)-1H-pyrazol-4-yl)methyl)acrylamide] |  |  | 100 | 100
CC#CC(=O)NCc1ccc(Oc2cc(OC)c3c(NS(=O)(=O)c4cc(CC)ccc4OC)noc3c2)nc1 [Syn. Ex. 57, N-((6-((3-((5-ethyl-2-methoxyphenyl)sulfonamido)-4-methoxybenzo[d]isoxazol-6-yl)oxy)pyridin-3-yl)methyl)but-2-ynamide] |  |  | 70 | 100
CCc1ccc(OC)c(S(=O)(=O)Nc2noc3cc(Oc4ncc(CNC(=O)OC)s4)c(OC)cc23)c1 [Syn. Ex. 149, methyl —{N}—[[2-[[3-[(5-ethyl-2-methoxy-phenyl)sulfonylamino]-5-methoxy-1,2-benzoxazol-6-yl]oxy]thiazol-5-yl]methyl]carbamate] | 101 | 102 |  | 
C#CC(=O)NCc1cnn(Cc2cc(OC)c3c(NS(=O)(=O)c4cc(CC)ccc4OCc4nn[nH]n4)noc3c2)c1 [Syn. Ex. 70, N-((1-((3-((2-((2H-tetrazol-5-yl)methoxy)-5-ethylphenyl)sulfonamido)-4-methoxybenzo[d]isoxazol-6-yl)methyl)-1H-pyrazol-4-yl)methyl)propiolamide] |  |  | 100 | 100
CCc1ccc(OCC#N)c(S(=O)(=O)Nc2noc3cc(Cn4cc(CNC(=O)OC)cn4)cc(OC)c23)c1 [Syn. Ex. 44, methyl ((1-((3-((2-(cyanomethoxy)-5-ethylphenyl)sulfonamido)-4-methoxybenzo[d]isoxazol-6-yl)methyl)-1H-pyrazol-4-yl)methyl)carbamate] |  |  | 97 | 100
CCc1ccc(OCc2nc[nH]n2)c(S(=O)(=O)Nc2noc3cc(Cn4cc(CNC(=O)OC)cn4)cc(OC)c23)c1 [Syn. Ex. 117, methyl ((1-((3-((2-((1H-1,2,4-triazol-3-yl)methoxy)-5-ethylphenyl)sulfonamido)-4-methoxybenzo[d]isoxazol-6-yl)methyl)-1H-pyrazol-4-yl)methyl)carbamate] |  |  | 100 | 100
CCc1ccc(OC)c(S(=O)(=O)Nc2noc3cc(Oc4ccc(N)cn4)cc(OC)c23)c1 [Syn. Ex. 109, N-(6-((5-aminopyridin-2-yl)oxy)-4-methoxybenzo[d]isoxazol-3-yl)-5-ethyl-2-methoxybenzenesulfonamide] |  |  | 95 | 98
CCC(=O)N1Cc2cnn(Cc3cc(OC)c4c(NS(=O)(=O)c5ccccc5OC)noc4c3)c2C1 [Syn. Ex. 3, 2-methoxy-N-(4-methoxy-6-((5-propionyl-5,6-dihydropyrrolo[3,4-c]pyrazol-1(4H)-yl)methyl)benzo[d]isoxazol-3-yl)benzenesulfonamide] |  |  | 100 | 100
CC#CC(=O)NCc1cnn(Cc2cc(OC)c3c(NS(=O)(=O)c4cc(OC)ccc4OC)noc3c2)c1 [Syn. Ex. 58, N-((1-((3-((2,5-dimethoxyphenyl)sulfonamido)-4-methoxybenzo[d]isoxazol-6-yl)methyl)-1H-pyrazol-4-yl)methyl)but-2-ynamide] |  |  | 91 | 97
COC(=O)NCc1cnn(Cc2cc(OC)c3c(NS(=O)(=O)c4c(OC)ccnc4OC)noc3c2)c1 [Syn. Ex. 86, methyl ((1-((3-((2,4-dimethoxypyridine)-3-sulfonamido)-4-methoxybenzo[d]isoxazol-6-yl)methyl)-1H-pyrazol-4-yl)methyl)carbamate] | 86 | 100 |  | 
CCOc1cc(C)ccc1S(=O)(=O)Nc1noc2cc(Cn3cc(CNC(=O)OC)cn3)cc(OC)c12 [Syn. Ex. 136, methyl ((1-((3-((2-ethoxy-4-methylphenyl)sulfonamido)-4-methoxybenzo[d]isoxazol-6-yl)methyl)-1H-pyrazol-4-yl)methyl)carbamate] |  |  | 99 | 99
C#CC(=O)NCc1ccc(Oc2cc(OC)c3c(NS(=O)(=O)c4cc(CC)ccc4OC)noc3c2)nc1 [Syn. Ex. 61, N-((6-((3-((5-ethyl-2-methoxyphenyl)sulfonamido)-4-methoxybenzo[d]isoxazol-6-yl)oxy)pyridin-3-yl)methyl)propiolamide] |  |  | 60 | 100
C#CC(=O)Nc1ccc(Oc2cc(OC)c3c(NS(=O)(=O)c4cc(CC)ccc4OC)noc3c2)nc1 [Syn. Ex. 108, N-(6-((3-((5-ethyl-2-methoxyphenyl)sulfonamido)-4-methoxybenzo[d]isoxazol-6-yl)oxy)pyridin-3-yl)propiolamide] |  |  | 99 | 100
CCc1ccc(OC)c(S(=O)(=O)Nc2noc3cc(Cn4cc(CNC(=O)OC)cn4)c(OC)cc23)c1 [Syn. Ex. 137, methyl ((1-((3-((5-ethyl-2-methoxyphenyl)sulfonamido)-5-methoxybenzo[d]isoxazol-6-yl)methyl)-1H-pyrazol-4-yl)methyl)carbamate] |  |  | 98 | 89
C#CCOc1ccc(CC)cc1S(=O)(=O)Nc1noc2cc(Cn3cc(CNC(=O)OC)cn3)cc(OC)c12 [Syn. Ex. 128, methyl ((1-((3-((5-ethyl-2-(prop-2-yn-1-yloxy)phenyl)sulfonamido)-4-methoxybenzo[d]isoxazol-6-yl)methyl)-1H-pyrazol-4-yl)methyl)carbamate] |  |  | 101 | 100
